Source: ChEMBL document CHEMBL1201862, “PubChem BioAssay data set” (2004)
Active and inactive are the calls of the source.

How the values were obtained:
[1] = test system: Vero; test: viability of Vero cells under compound – cytotoxicity control for flavivirus capping enzyme inhibitors (AID 588742); assay type: functional; settings: Chlorocebus sabaeus
[2] = fluconazole-exposed Candida albicans growth modulators – fluorescence, retest, confirmation (AID 2467); assay type: functional, cell-based
[3] = molecular target: T1, Serine/threonine-protein phosphatase (Candida dubliniensis (strain CD36 / CBS 7987 / NCPF 3949 / NRRLY-17841) (Yeast), UniProt B9W6M3); test: blockers of CaCl2-induced CDRE-lacZ signaling – S. cerevisiae, luminescence, secondary, dose response (AID 2388); assay type: functional, cell-based;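 note: yeast reporter cells carrying a calcineurin-responsive lacZ construct stimulated with calcium chloride; luminescent beta-galactosidase reporter signal in whole cells rather than isolated phosphatase activity; potency for inhibition where a drop in reporter signal means calcineurin blockade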
T1 sequence (B9W6M3 whole entry): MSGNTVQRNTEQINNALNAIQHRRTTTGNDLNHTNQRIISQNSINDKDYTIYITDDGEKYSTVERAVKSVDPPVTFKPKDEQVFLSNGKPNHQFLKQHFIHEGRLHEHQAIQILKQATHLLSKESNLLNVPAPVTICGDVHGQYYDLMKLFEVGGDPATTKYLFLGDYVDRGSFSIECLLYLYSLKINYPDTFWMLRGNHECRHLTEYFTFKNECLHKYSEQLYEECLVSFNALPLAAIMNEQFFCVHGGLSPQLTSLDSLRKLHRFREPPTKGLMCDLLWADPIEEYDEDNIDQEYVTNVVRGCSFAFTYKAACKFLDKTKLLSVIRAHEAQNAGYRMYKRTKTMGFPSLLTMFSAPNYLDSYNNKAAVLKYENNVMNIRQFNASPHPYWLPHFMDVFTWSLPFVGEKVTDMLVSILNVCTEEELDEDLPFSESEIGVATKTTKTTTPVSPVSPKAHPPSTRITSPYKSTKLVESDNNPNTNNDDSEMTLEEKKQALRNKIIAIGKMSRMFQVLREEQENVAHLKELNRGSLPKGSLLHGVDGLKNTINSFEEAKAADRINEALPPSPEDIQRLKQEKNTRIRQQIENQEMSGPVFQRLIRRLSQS

[4] = NIH-3T3 fibroblast cytotoxicity, dose response, cytotoxicity control, cell-based, fluorescence, Alamar Blue, secondary assay (AID 2327); assay type: functional;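 note: NIH-3T3 mouse fibroblasts cultured with fluconazole at 8 µg/mL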
[5] = molecular target: ATP-dependent molecular chaperone HSP82 (Candida albicans (strain WO-1) (Yeast), UniProt C4YTQ8); test: steroid-induced GRE reporter decrease in yeast – S. cerevisiae, luminescence, Hsp90 inhibitor project, dose response (AID 2400); assay type: functional, cell-based;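 note: beta-galactosidase luminescence from glucocorticoid response element reporter as proxy for Hsp90 function; inhibitor potency where signal loss means Hsp90 inhibition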
Sequence of ATP-dependent molecular chaperone HSP82 (C4YTQ8 whole entry): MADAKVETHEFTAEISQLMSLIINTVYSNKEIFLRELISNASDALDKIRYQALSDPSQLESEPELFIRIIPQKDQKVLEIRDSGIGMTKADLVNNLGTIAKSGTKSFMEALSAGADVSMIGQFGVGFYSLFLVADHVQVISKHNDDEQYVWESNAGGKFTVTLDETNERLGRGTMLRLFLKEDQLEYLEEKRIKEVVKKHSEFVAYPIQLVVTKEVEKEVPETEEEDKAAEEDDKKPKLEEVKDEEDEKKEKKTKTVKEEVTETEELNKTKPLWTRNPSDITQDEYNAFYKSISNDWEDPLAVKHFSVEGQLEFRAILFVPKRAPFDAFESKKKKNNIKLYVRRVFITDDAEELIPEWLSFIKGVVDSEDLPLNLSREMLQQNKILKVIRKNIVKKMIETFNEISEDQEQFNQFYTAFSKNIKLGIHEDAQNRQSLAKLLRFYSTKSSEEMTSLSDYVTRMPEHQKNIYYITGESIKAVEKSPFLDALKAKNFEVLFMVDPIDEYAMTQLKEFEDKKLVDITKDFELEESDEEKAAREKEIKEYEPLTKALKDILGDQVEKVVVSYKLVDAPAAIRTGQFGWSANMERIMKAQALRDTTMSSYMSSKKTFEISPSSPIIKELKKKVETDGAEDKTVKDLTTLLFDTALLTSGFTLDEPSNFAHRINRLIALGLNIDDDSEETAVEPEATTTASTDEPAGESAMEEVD

[6] = test system: INS1; test: INS-1E survival protection against cytokine death – cell-based, luminescence, retest, dose response (AID 449756); assay type: functional; settings: Rattus norvegicus;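 note: cell death triggered by IL-1 beta plus TNF-alpha plus IFN-gamma mixture; protective hits raise ATP signal compared with cytokine alone wells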
[7] = molecular target: T2, Protein skinhead-1 (Caenorhabditis elegans, UniProt P34707); assay type: functional
T2 sequence (P34707 whole entry): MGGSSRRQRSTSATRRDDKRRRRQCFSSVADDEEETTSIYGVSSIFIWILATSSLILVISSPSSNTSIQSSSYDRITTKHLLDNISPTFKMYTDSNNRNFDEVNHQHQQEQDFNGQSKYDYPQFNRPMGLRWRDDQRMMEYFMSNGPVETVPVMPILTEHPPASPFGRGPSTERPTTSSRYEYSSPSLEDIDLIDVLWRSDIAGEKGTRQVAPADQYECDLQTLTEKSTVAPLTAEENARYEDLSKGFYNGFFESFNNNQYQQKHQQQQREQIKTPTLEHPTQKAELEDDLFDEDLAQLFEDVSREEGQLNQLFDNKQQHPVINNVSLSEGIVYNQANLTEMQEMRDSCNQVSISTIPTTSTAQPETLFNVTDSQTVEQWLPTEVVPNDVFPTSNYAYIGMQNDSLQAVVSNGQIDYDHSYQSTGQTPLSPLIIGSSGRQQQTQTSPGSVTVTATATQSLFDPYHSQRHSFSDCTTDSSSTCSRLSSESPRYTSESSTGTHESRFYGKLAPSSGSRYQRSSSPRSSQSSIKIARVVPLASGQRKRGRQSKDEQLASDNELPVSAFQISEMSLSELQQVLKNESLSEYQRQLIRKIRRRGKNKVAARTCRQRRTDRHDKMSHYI

[8] = molecular target: Beta-galactosidase (Escherichia coli, UniProt Q8VNN2); test: PubChem AID 485352; assay type: functional
Sequence of Beta-galactosidase (Q8VNN2 whole entry): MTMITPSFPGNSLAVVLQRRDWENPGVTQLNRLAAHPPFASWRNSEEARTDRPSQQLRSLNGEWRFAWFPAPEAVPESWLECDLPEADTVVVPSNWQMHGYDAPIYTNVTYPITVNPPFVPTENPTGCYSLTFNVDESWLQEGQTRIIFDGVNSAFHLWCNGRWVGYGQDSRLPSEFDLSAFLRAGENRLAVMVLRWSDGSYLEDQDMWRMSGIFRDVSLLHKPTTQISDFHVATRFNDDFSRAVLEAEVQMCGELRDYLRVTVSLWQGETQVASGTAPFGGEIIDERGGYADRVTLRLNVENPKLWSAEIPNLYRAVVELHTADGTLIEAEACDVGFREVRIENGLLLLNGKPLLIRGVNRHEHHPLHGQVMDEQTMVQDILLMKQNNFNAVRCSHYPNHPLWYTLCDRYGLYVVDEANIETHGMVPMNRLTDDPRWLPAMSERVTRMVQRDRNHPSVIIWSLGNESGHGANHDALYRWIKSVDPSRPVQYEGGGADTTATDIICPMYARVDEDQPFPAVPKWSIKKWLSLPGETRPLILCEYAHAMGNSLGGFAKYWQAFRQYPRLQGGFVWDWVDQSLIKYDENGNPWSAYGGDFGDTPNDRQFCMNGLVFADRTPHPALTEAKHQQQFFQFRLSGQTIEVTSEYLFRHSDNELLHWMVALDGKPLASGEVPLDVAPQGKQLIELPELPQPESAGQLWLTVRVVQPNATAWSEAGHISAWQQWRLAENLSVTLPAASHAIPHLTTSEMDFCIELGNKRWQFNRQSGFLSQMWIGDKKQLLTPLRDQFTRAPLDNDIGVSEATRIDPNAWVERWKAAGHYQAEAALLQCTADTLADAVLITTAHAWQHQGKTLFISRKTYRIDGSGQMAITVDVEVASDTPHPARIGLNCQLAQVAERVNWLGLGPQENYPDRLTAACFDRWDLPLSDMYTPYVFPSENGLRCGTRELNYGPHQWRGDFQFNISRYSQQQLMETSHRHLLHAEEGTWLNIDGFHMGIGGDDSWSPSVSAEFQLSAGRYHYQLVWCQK

[9] = molecular target: T3, Type-1 angiotensin II receptor (Homo sapiens, UniProt P30556); test: antagonism of angiotensin II type 1 receptor – cell-based, uHTS hits, selectivity assay for APJ receptor antagonist project, dose response (AID 463214); assay type: functional;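 note: antagonist potency against angiotensin II stimulated AT1 response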
T3 sequence (P30556 whole entry): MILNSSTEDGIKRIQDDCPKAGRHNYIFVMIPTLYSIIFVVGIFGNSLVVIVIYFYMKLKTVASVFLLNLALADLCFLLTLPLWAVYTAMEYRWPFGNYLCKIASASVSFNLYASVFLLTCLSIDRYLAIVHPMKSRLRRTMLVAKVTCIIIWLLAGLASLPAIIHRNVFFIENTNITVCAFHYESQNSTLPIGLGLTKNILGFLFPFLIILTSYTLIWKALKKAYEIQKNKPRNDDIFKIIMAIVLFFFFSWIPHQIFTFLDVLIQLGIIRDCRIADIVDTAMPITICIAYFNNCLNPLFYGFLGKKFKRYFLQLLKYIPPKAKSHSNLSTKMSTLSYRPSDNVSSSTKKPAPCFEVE

[10] = microbe, parasite or virus in culture; assay type: functional; settings: Mycobacterium tuberculosis
[11] = molecular target: T4, High affinity choline transporter 1 (Homo sapiens, UniProt Q9GZV3); test: human choline transporter blockers, potency – cell-based, 10-point CRC, membrane potential dye, dose response (AID 588401); assay type: functional;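 note: membrane potential dye fluorescence of choline-evoked depolarization via CHT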
T4 sequence (Q9GZV3 whole entry): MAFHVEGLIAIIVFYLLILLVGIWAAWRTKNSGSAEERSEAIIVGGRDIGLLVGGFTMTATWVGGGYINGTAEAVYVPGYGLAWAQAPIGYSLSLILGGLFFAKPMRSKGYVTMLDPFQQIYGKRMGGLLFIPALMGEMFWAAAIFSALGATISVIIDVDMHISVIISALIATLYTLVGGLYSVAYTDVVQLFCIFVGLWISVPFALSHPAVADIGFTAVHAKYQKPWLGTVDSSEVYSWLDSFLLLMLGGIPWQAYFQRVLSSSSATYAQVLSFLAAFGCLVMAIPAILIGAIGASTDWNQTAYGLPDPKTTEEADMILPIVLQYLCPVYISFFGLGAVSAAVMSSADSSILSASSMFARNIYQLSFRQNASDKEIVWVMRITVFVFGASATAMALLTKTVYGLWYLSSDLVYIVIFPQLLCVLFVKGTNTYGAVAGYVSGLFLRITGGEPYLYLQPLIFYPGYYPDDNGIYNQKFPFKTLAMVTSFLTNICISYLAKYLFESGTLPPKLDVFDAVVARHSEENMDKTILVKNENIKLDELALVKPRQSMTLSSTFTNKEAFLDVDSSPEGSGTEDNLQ

[12] = molecular target: T4, High affinity choline transporter 1; test: human choline transporter blockers, potency – cell-based, 5-point CRC, membrane potential dye, dose response (AID 504840); assay type: functional
[13] = molecular target: T5, Apoptotic protease-activating factor 1 (Homo sapiens, UniProt O14727); test: SAR analysis of small molecule Activators of Apaf-1 in a Fluorescent assay.; assay type: functional; settings: read-out: EC50_Mean;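 note: caspase-3 cleavage of fluorogenic Rh110 DEVD substrate downstream of apoptosome activation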
T5 sequence (O14727 whole entry): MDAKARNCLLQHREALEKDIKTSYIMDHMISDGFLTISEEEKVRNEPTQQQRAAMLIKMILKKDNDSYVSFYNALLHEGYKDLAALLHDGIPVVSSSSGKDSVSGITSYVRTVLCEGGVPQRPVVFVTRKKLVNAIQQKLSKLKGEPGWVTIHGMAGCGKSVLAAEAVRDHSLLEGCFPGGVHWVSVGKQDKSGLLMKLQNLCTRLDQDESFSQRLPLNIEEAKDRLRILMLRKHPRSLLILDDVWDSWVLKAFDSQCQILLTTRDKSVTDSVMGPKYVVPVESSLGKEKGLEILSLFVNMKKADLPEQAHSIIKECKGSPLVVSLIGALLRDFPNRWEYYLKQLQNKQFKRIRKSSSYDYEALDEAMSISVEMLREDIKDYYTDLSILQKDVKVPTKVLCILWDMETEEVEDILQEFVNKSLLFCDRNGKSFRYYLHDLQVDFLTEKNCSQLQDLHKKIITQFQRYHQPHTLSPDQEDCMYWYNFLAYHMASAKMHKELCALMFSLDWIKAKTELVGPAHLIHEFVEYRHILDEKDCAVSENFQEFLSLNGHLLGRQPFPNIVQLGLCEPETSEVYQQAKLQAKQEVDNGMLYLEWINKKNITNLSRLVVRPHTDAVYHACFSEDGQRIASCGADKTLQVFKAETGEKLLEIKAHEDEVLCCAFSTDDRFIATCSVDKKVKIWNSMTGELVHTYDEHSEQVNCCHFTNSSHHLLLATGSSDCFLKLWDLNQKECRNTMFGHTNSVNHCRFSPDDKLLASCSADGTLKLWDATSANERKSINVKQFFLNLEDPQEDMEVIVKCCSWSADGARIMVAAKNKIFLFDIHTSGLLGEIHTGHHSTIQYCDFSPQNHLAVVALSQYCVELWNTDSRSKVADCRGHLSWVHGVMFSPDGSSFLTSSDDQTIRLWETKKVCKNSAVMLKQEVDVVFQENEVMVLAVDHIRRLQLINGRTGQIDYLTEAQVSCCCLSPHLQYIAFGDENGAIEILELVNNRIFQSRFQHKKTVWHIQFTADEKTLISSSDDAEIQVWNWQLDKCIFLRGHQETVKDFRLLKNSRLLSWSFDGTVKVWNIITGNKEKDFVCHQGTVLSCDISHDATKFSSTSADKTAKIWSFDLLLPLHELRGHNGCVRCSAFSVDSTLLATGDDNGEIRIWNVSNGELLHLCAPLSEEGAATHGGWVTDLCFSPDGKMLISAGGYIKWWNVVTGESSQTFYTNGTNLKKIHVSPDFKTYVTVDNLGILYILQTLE

[14] = molecular target: T6, Orexin receptor type 2 (Homo sapiens, UniProt O43614); test: Counterscreen assay for antagonists of the orexin 1 receptor (OX1R; HCRTR1): Homogeneous Time Resolved Fluorescence (HTRF)-based cell-based dose response assay for antagonists of the orexin 2 receptor (OX2R; HCRTR2), run by assay provider.; assay type: functional
T6 sequence (O43614 whole entry): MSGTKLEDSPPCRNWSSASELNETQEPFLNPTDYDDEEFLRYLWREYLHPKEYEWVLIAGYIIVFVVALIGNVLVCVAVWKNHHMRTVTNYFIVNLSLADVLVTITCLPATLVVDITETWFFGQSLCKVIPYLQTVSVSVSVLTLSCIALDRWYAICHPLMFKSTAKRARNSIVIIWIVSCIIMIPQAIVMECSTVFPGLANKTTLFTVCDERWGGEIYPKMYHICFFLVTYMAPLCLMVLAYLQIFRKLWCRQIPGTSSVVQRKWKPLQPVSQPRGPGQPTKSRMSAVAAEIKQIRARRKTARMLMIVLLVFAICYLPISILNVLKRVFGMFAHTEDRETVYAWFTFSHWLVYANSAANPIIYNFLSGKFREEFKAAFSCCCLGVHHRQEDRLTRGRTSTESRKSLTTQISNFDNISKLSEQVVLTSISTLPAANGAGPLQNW

[15] = molecular target: T6, Orexin receptor type 2; test: Counterscreen assay for antagonists of the orexin 1 receptor (OX1R; HCRTR1): Fluorescence-based cell-based dose response assay for antagonists of the orexin 2 receptor (OX2R; HCRTR2), run by assay provider.; assay type: functional
[16] = test system: A-375; test: MITF: Counter assay: A375 proliferation Measured in Cell-Based System Using Plate Reader - 2084-03_Inhibitor_Dose_DryPowder_Activity. [Related pubchem assays (depositor defined):AID488944]; assay type: functional; settings: Homo sapiens
[17] = test system: A-375; test: proliferation inhibition in MITF-low A375 cells – cell-based, cherry-pick samples, set 2, counter-screen for MITF modulator project, dose response (AID 540335); assay type: functional; settings: Homo sapiens

## COc1ccc(CC2=C(O)C(=O)c3ccccc3C2=O)cc1
[1]
  CC50: > 40 µM (active)

## COc1cccc(COc2cc3ccccc3nc2C)c1
[2]
  EC50: 0.914 µM (active)
[3]
  EC50: > 180 µM (inactive)
[4]
  EC50: > 150 µM (inconclusive)
[5]
  EC50: > 160 µM (inactive)
[6]
  AC50: 2.61 µM (active)
[7]
  IC50: 80.1 µM (inactive)

## Cc1ccc(C(=O)COC(=O)CNS(=O)(=O)c2ccccc2)cc1[N+](=O)[O-]
[8]
  EC50: > 40 µM (inactive)
[9]
  IC50: 33 µM (not active)

## Cc1sc2nc3c4ccccc4c(NCc4ccco4)nn3c(=O)c2c1C
[1]
  CC50: > 40 µM (active)
[10]
  CC50: 37.6 µM (active)

## COc1ccc(CN2CCN(C(C)C)C(CCO)C2)cc1Cn1cccn1 (stereo not given)
[11]
  IC50: 1.41 µM (active)
[12]
  IC50: 3.31 µM (active)

## Cc1nc(C(F)(F)F)ccc1C(=O)Nc1nc2ccsc2c(=O)s1
[13]
  EC50: > 100 µM (inactive)

## O=C(COC(=O)c1ccncc1)c1ccc(Cl)c(Cl)c1
[8]
  EC50: > 40 µM (inactive)
[9]
  IC50: 15 µM (active)

## CCOc1ccccc1C(=O)NCCCCNC(=O)c1ccccc1OCC
[14]
  IC50: > 50 µM (inactive)
[15]
  IC50: > 88.8 µM (inactive)

## O=C(Nc1nc2ccsc2c(=O)s1)C1CCC1
[16]
  AC50: > 35 µM (active)
[13]
  EC50: > 100 µM (inactive)
[17]
  AC50: > 35 µM (active)

## O=C(NC1CCCCCCC1)c1ccc(CNc2c(N3CCOCC3)c(=O)c2=O)cc1
[11]
  IC50: 2.01 µM (active)
[12]
  IC50: 0.875 µM (active)

## COc1ccc(NS(=O)(=O)c2ccc(NC(=O)c3ccccc3Br)cc2)nn1
[11]
  IC50: 5.01 µM (active)
[12]
  IC50: 10.3 µM (active)
